The values that follow come from US20230348538A1, “METHOD FOR TREATMENT OF DRY EYE COMPRISNG APPLYING P55PIK INHIBITOR” (Wuhan Yicheng Biological Technology Co., Ltd., priority 2020, published 2023).

For experiment [1], the system named is dry eye model induced by 0.2% benzalkonium chloride solution. Briefly: Benzalkonium chloride dry eye model: conjunctival goblet cells (PAS staining). The class given is in vivo, C57BL/6 mice. How it is done:
The healthy male C57BL/6 mice were kept in a controlled environment with a temperature of (25±1)° C., a relative humidity of (25±5)%, and light-dark cycles (9 AM-9 PM) with simulated dawn and dusk. Forty mice (80 eyes) were treated with 5 μL of 0.2% benzalkonium chloride solution twice a day (8:00 AM and 6:00 PM) for 14 days to induce dry eye symptoms, while the remaining ten mice (20 eyes) received no treatment and served as a baseline control. […] Group A, the drug treatment group, was treated with the eye drops comprising 0.1% TAT-[…] peptide, four times a day; Group B, the solvent control group, was treated with eye drops without TAT-[…] peptide, four times a day; and Group C, the blank control group, received no treatment; on days 1, 4, and 7 after treatment, BUT, Schirmer's test I, and fluorescein sodium staining were performed; on the 7th day, the paraffin sections of the conjunctival fornix was stained by PAS stain; and the number of PAS-positive goblet cells was counted.

Experiment [2] concerns rabbit model of dry eye (0.1% benzalkonium chloride). Nature of the experiment: Rabbit model of dry eye: conjunctival impression cytology (CIC), goblet cell density. Type of experiment: in vivo, New Zealand white rabbits. The following applies: following medication; statistically significant; FIG. 5. How it is done: (§1) 1.2.1 Grouping: thirty New Zealand white rabbits were randomly divided into three groups, each comprising 10 rabbits: a blank control group, a solvent control group, and a drug treatment group.
1.2.2 Preparation of a rabbit model of dry eye: the right eye of each rabbit was used to establish a dry eye rabbit model by administering 0.1% benzalkonium chloride eye drops twice a day for 4 weeks. After 4 weeks, the dry eye rabbit model was evaluated, with the conjunctiva appearing dry, tear production being reduced, and Schirmer test values being less than 10 mm/5 min (compared to the control group, where all Schirmer test values were above 10 mm). […]
1.3.3 Conjunctival impression cytology (CIC) examination: CIC examination was performed on days 1, 4, and 7 after treatment; the nitrocellulose membranes were cut into two strips of 3.5 mm×3.5 mm each, soaked in distilled water for 4 h, and then dried; after surface anesthesia, the rough side of the two strips of the nitrocellulose membranes were placed on the nasal and temporal quadrants of the conjunctiva and pressed for 10 seconds to obtain surface epithelial cells; the nitrocellulose membranes were then fixed in 95% ethanol and stained with periodic acid-Schiff (PAS); the number of the goblet cells was counted under an optical microscope and graded according to the Nelson scoring system.

The subject of experiment [3] is rat model of dry eye caused by low tear secretion. Nature of the experiment: Rat model of dry eye caused by low tear secretion (atropine): lacrimal secretion test (Schirmer's test II). The class given is in vivo, SD rats. How it is done:
1.2.2 Modeling: a rat model of dry eye caused by low tear secretion, was established using the Burgalassi method of atropine injection into the lacrimal glands; eighteen laboratory rats, with equal numbers of male and female, were given 0.4% oxybucaine hydrochloride eye drops in both eyes and injected with 0.25 mL of 0.5 mg/mL atropine into the lacrimal glands four times a day for both eyes; the results of lacrimal secretion test were recorded 0.5 hours after the atropine injection every day; and the atropine injection was continued until the 7th day.
Grouping and administration: six laboratory rats, with equal numbers of male and female, were used as the normal control group and were not modeled; the eighteen successfully modeled laboratory rats were randomly divided into three model groups, with 6 rats in each model group, half male and half female; Model group 1 was the blank control group and received no treatment; Model group 2 was the solvent control group and treated with solvent eye drops that contained a solvent but no TAT-N16 peptide; Model group 3 was the drug treatment group and was treated with eye drops comprising 0.1% TAT-N16 peptide; the eye drops was administered four times a day (1 drop/time) for 7 days; the amount of the lacrimal secretion of each eye was recorded on days 0, 4 and 7 after treatment; the expression levels of P55PIK gene and p55PIK protein in the rat eyes of the normal control group and the model groups were detected.
1.2.2.1 Lacrimal secretion test (Schirmer's test II): due to the smaller eyeballs of SD rats compared to human, the Schirmer tear test strips designed for human use were not suitable for use in the SD rats; therefore, the Schirmer's test II was conducted by cutting a 5 mm x 35 mm Schirmer tear test strip into two strips of 2.5 mm×35 mm each, folding the front end, and lightly placing the Schirmer tear test strip at the junction of the posterior-middle ⅓ of the lower eyelid; after 5 minutes, the Schirmer tear test strips were removed; and the length of the Schirmer tear test strips wetted by tears were measured for 2 minutes and the measurement was repeated three times to obtain an average value; the results were recorded before the treatment, and on the 4th and 7th day after treatment.

Experiment [4] deals with rabbit model of dry eye (0.1% benzalkonium chloride). Briefly: Rabbit model of dry eye: Schirmer's test. Type of experiment: in vivo, New Zealand white rabbits. How it is done:
as §1
1.2.2 Preparation of a rabbit model of dry eye: the right eye of each rabbit was used to establish a dry eye rabbit model by administering 0.1% benzalkonium chloride eye drops twice a day for 4 weeks. After 4 weeks, the dry eye rabbit model was evaluated, with the conjunctiva appearing dry, tear production being reduced, and Schirmer test values being less than 10 mm/5 min (compared to the control group, where all Schirmer test values were above 10 mm).
1.2.3 Drug preparation and usage: a liquid formulation of 0.1% TAT-N16 peptide eye drops were prepared by dissolving the peptide raw materials in physiological saline according to a weight ratio of 0.1%. The eye drops comprising 0.1% TAT-N16 peptide were administered 2 drops, 3 times a day for 7 days. The blank control group received no treatment, and the solvent control group received physiological saline eye drops 2 drops, 3 times a day for 7 days. The normal eye group served as a normal control group.
1.3 Specimen collection and animal testing were conducted by the same individual. […] The rabbit conjunctiva appearance, fluorescein staining, tear film break-up time were analyzed using a slit lamp before and on days 4 and 7 after treatment; additionally, the Schirmer's test and conjunctival impression cytology (CIC) were carried out.
1.3.1 Schirmer's test: the corneal surface was anesthetized with oxybuprocaine hydrochloride; a cotton swab was used to absorb the fluid around the eyelid; the Schirmer tear test strips were placed at the junction of the ⅓ posterior-middle of the lower conjunctival sac of the New Zealand white rabbit, with the remaining part hanging on the skin surface; the New Zealand white rabbit was then instructed to close its eyes, and after 5 minutes, the length of wet portion of the Schirmer tear test strips was measured.

On to “TAT-N16 peptide: cell-penetrating artificial peptide, sequence SEQ ID NO: 2, constructed by linking the peptide N16 to a TAT sequence; P55PIK inhibitor (YGRKKRRQRRRMMPYSTELIFYIEMDP)”, for which, in experiment [1] (7 days of continuous treatment, P<0.01, FIG. 4), the “Density of conjunctival goblet cells compared with blank control group and solvent control group” value is on record as “significantly higher”. For the same substance, the “Number of conjunctival goblet cells (PAS-stained paraffin sections of the conjunctival fornix)” value in experiment [1] (after treatment with the eye drops) is “increased significantly”. Also, the “Goblet cell density (CIC examination) compared to before medication” value in experiment [2] is “gradual increase”. Besides, the “Tear secretion compared with the control groups” value in experiment [3] (4th and 7th day of treatment, P<0.05) is “significantly higher”. Also, the “Schirmer's test II values (x ± s, n = 6)” value was determined as 5.74 ± 1.59 mm in experiment [3] (after 4 days of treatment, 0.1% eye drops four times a day); 8.58 ± 1.73 mm in experiment [3] (after 7 days of treatment, 0.1% eye drops four times a day); 3.29 ± 1.34 mm in experiment [3] (before treatment (baseline), drug treatment group, 0.1% eye drops). Besides, the “Schirmer' test values” in experiment [4] (0 d / before treatment (baseline), drug treatment group) is on record as 8.38±0.57 mm; in experiment [4] (4 d, 0.1% eye drops 2 drops, 3 times a day), 12.02±1.21 mm; in experiment [4] (7 d, 0.1% eye drops 2 drops, 3 times a day), 16.31±1.45 mm.
